Holding throughout (assay type): functional
The subject of assay [1] is Streptococcus pneumoniae. The assay is described as follows: Antibacterial activity against erythromycin-resistant Streptococcus pneumoniae AB1-1 expressing erm and mef gene by broth microdilution method. In general terms: Broth dilution looks for growth in wells or tubes with falling amounts of substance.
Assay [2] deals with Streptococcus pneumoniae. As to the kind of experiment: Antibacterial activity against erythromycin-susceptible Streptococcus pneumoniae ATCC 49619 by broth microdilution method.
In assay [3] the test system is Streptococcus pneumoniae. The assay is described as follows: Antibacterial activity against erythromycin-resistant Streptococcus pneumoniae B1 expressing erm gene by broth microdilution method.
Assay [4] concerns Streptococcus pneumoniae. As to the kind of experiment: Antibacterial activity against erythromycin-resistant Streptococcus pneumoniae A22072 expressing mef gene by broth microdilution method.

Consider 15 compounds from ChEMBL document CHEMBL1155521, “Synthesis and antibacterial activity of novel 4''-O-arylalkylcarbamoyl and 4''-O-((arylalkylamino)-4-oxo-butyl)carbamoyl clarithromycin derivatives” (2010).

Converted amounts (≈) assume the structure as drawn.

The term MIC denotes the least concentration at which growth counts as inhibited. Higher therefore signals a less susceptible organism. For `CC[C@H]1OC(=O)[C@H](C)[C@@H](O[C@H]2C[C@@](C)(OC)[C@@H](OC(=O)NCc3ccccc3)[C@H](C)O2)[C@H](C)[C@@H](O[C@@H]2O[C@H](C)C[C@H](N(C)C)[C@H]2O)[C@](C)(OC)C[C@@H](C)C(=O)[C@H](C)[C@@H](O)[C@]1(C)O`, the MIC is 8 µg/mL (≈ 9.08 µM) in assay [1], 0.25 µg/mL (≈ 0.284 µM) in assay [2], 4 µg/mL (≈ 4.54 µM) in assay [3] and 0.25 µg/mL (≈ 0.284 µM) in assay [4].
Turning to `CC[C@H]1OC(=O)[C@H](C)[C@@H](O[C@H]2C[C@@](C)(OC)[C@@H](OC(=O)NCc3ccc(F)cc3)[C@H](C)O2)[C@H](C)[C@@H](O[C@@H]2O[C@H](C)C[C@H](N(C)C)[C@H]2O)[C@](C)(OC)C[C@@H](C)C(=O)[C@H](C)[C@@H](O)[C@]1(C)O`, the MIC in assay [1] amounted to 8 µg/mL (≈ 8.9 µM); in assay [2], 0.06 µg/mL (≈ 0.0667 µM); in assay [3] it was 4 µg/mL (≈ 4.45 µM); in assay [4], 0.5 µg/mL (≈ 0.556 µM).
On to `CC[C@H]1OC(=O)[C@H](C)[C@@H](O[C@H]2C[C@@](C)(OC)[C@@H](OC(=O)NCc3ccc(OC)cc3)[C@H](C)O2)[C@H](C)[C@@H](O[C@@H]2O[C@H](C)C[C@H](N(C)C)[C@H]2O)[C@](C)(OC)C[C@@H](C)C(=O)[C@H](C)[C@@H](O)[C@]1(C)O`, for which the MIC amounted to 32 µg/mL (≈ 35.1 µM) in assay [1], 0.03 µg/mL (≈ 0.0329 µM) in assay [2], 16 µg/mL (≈ 17.6 µM) in assay [3] and 0.25 µg/mL (≈ 0.274 µM) in assay [4].
In the same order, the values of `CC[C@H]1OC(=O)[C@H](C)[C@@H](O[C@H]2C[C@@](C)(OC)[C@@H](OC(=O)NCCc3ccc(O)cc3)[C@H](C)O2)[C@H](C)[C@@H](O[C@@H]2O[C@H](C)C[C@H](N(C)C)[C@H]2O)[C@](C)(OC)C[C@@H](C)C(=O)[C@H](C)[C@@H](O)[C@]1(C)O` are 64 µg/mL (≈ 70.2 µM), 0.03 µg/mL (≈ 0.0329 µM), 16 µg/mL (≈ 17.6 µM) and 1 µg/mL (≈ 1.1 µM).
Turning to `CC[C@H]1OC(=O)[C@H](C)[C@@H](O[C@H]2C[C@@](C)(OC)[C@@H](OC(=O)NCCc3ccccc3Cl)[C@H](C)O2)[C@H](C)[C@@H](O[C@@H]2O[C@H](C)C[C@H](N(C)C)[C@H]2O)[C@](C)(OC)C[C@@H](C)C(=O)[C@H](C)[C@@H](O)[C@]1(C)O`, the minimal inhibitory concentration (MIC) turned out to be 128 µg/mL (≈ 138 µM) in assay [1], 0.12 µg/mL (≈ 0.129 µM) in assay [2], 128 µg/mL (≈ 138 µM) in assay [3] and 4 µg/mL (≈ 4.3 µM) in assay [4].
`CC[C@H]1OC(=O)[C@H](C)[C@@H](O[C@H]2C[C@@](C)(OC)[C@@H](OC(=O)NCCc3ccccc3)[C@H](C)O2)[C@H](C)[C@@H](O[C@@H]2O[C@H](C)C[C@H](N(C)C)[C@H]2O)[C@](C)(OC)C[C@@H](C)C(=O)[C@H](C)[C@@H](O)[C@]1(C)O`: the MIC in assay [1] was 32 µg/mL (≈ 35.7 µM); in assay [2] it was 0.06 µg/mL (≈ 0.067 µM); in assay [3], 16 µg/mL (≈ 17.9 µM); in assay [4] it was 0.5 µg/mL (≈ 0.559 µM).
For `CC[C@H]1OC(=O)[C@H](C)[C@@H](O[C@H]2C[C@@](C)(OC)[C@@H](OC(=O)NCCc3ccc4c(c3)OCO4)[C@H](C)O2)[C@H](C)[C@@H](O[C@@H]2O[C@H](C)C[C@H](N(C)C)[C@H]2O)[C@](C)(OC)C[C@@H](C)C(=O)[C@H](C)[C@@H](O)[C@]1(C)O`, the MIC in assay [1] amounted to 64 µg/mL (≈ 68.1 µM); in assay [2], 0.06 µg/mL (≈ 0.0639 µM); in assay [3], 32 µg/mL (≈ 34.1 µM); in assay [4] it was 0.25 µg/mL (≈ 0.266 µM).
In the same order, the values of `CC[C@H]1OC(=O)[C@H](C)[C@@H](O[C@H]2C[C@@](C)(OC)[C@@H](OC(=O)NCCCC(=O)NCc3ccccc3)[C@H](C)O2)[C@H](C)[C@@H](O[C@@H]2O[C@H](C)C[C@H](N(C)C)[C@H]2O)[C@](C)(OC)C[C@@H](C)C(=O)[C@H](C)[C@@H](O)[C@]1(C)O` are 0.25 µg/mL (≈ 0.259 µM), 0.03 µg/mL (≈ 0.031 µM), 2 µg/mL (≈ 2.07 µM) and 0.5 µg/mL (≈ 0.517 µM).
As for `CC[C@H]1OC(=O)[C@H](C)[C@@H](O[C@H]2C[C@@](C)(OC)[C@@H](OC(=O)NCCCC(=O)NCc3ccc(F)cc3)[C@H](C)O2)[C@H](C)[C@@H](O[C@@H]2O[C@H](C)C[C@H](N(C)C)[C@H]2O)[C@](C)(OC)C[C@@H](C)C(=O)[C@H](C)[C@@H](O)[C@]1(C)O`, the MIC in assay [1] is 2 µg/mL (≈ 2.03 µM); in assay [2], 0.03 µg/mL (≈ 0.0305 µM); in assay [3], 1 µg/mL (≈ 1.02 µM); in assay [4], 0.25 µg/mL (≈ 0.254 µM).
Take `CC[C@H]1OC(=O)[C@H](C)[C@@H](O[C@H]2C[C@@](C)(OC)[C@@H](OC(=O)NCCCC(=O)NCc3ccc(OC)cc3)[C@H](C)O2)[C@H](C)[C@@H](O[C@@H]2O[C@H](C)C[C@H](N(C)C)[C@H]2O)[C@](C)(OC)C[C@@H](C)C(=O)[C@H](C)[C@@H](O)[C@]1(C)O`: the MIC in assay [1] amounted to 1 µg/mL (≈ 1 µM); in assay [2], 0.03 µg/mL (≈ 0.0301 µM); in assay [3], 0.06 µg/mL (≈ 0.0602 µM); in assay [4], 0.25 µg/mL (≈ 0.251 µM).
For the compound `CC[C@H]1OC(=O)[C@H](C)[C@@H](O[C@H]2C[C@@](C)(OC)[C@@H](OC(=O)NCCCC(=O)NCCc3ccc(O)cc3)[C@H](C)O2)[C@H](C)[C@@H](O[C@@H]2O[C@H](C)C[C@H](N(C)C)[C@H]2O)[C@](C)(OC)C[C@@H](C)C(=O)[C@H](C)[C@@H](O)[C@]1(C)O`, the MIC in assay [1] stood at 1 µg/mL (≈ 1 µM); in assay [2] it was 0.03 µg/mL (≈ 0.0301 µM); in assay [3], 0.25 µg/mL (≈ 0.251 µM); in assay [4], 0.5 µg/mL (≈ 0.502 µM).
In the same order, the values of `CC[C@H]1OC(=O)[C@H](C)[C@@H](O[C@H]2C[C@@](C)(OC)[C@@H](OC(=O)NCCCC(=O)NCCc3ccccc3Cl)[C@H](C)O2)[C@H](C)[C@@H](O[C@@H]2O[C@H](C)C[C@H](N(C)C)[C@H]2O)[C@](C)(OC)C[C@@H](C)C(=O)[C@H](C)[C@@H](O)[C@]1(C)O` are 32 µg/mL (≈ 31.5 µM), 0.03 µg/mL (≈ 0.0296 µM), 32 µg/mL (≈ 31.5 µM) and 1 µg/mL (≈ 0.986 µM).
Take `CC[C@H]1OC(=O)[C@H](C)[C@@H](O[C@H]2C[C@@](C)(OC)[C@@H](O)[C@H](C)O2)[C@H](C)[C@@H](O[C@@H]2O[C@H](C)C[C@H](N(C)C)[C@H]2O)[C@](C)(O)C[C@@H](C)CN(C)[C@H](C)[C@@H](O)[C@]1(C)O` [AZITHROMYCIN]: the MIC in assay [1] was 256 µg/mL (≈ 342 µM); in assay [2] it was 0.03 µg/mL (≈ 0.0401 µM); in assay [3], 128 µg/mL (≈ 171 µM); in assay [4] it was 4 µg/mL (≈ 5.34 µM).
As for `CC[C@H]1OC(=O)[C@H](C)[C@@H](O[C@H]2C[C@@](C)(OC)[C@@H](O)[C@H](C)O2)[C@H](C)[C@@H](O[C@@H]2O[C@H](C)C[C@H](N(C)C)[C@H]2O)[C@](C)(OC)C[C@@H](C)C(=O)[C@H](C)[C@@H](O)[C@]1(C)O` [CLARITHROMYCIN], the MIC was found to be 128 µg/mL (≈ 171 µM) in assay [1], 0.03 µg/mL (≈ 0.0401 µM) in assay [2], 64 µg/mL (≈ 85.6 µM) in assay [3] and 4 µg/mL (≈ 5.35 µM) in assay [4].
Consider `CC[C@H]1OC(=O)[C@H](C)[C@@H](O[C@H]2C[C@@](C)(OC)[C@@H](O)[C@H](C)O2)[C@H](C)[C@@H](O[C@@H]2O[C@H](C)C[C@H](N(C)C)[C@H]2O)[C@](C)(O)C[C@@H](C)C(=O)[C@H](C)[C@@H](O)[C@]1(C)O` [ERYTHROMYCIN], for which the MIC in assay [1] was determined as 256 µg/mL (≈ 349 µM); in assay [2], 0.03 µg/mL (≈ 0.0409 µM); in assay [3], 128 µg/mL (≈ 174 µM); in assay [4], 8 µg/mL (≈ 10.9 µM).
